Experimental findings from PMC5363837 (Circulation, 2017) are described below.

Bridge positions count the residues as written; N and C are the ends. Ends that are not written are not given here. Peptide text beside a SMILES is read from it.

Assay [1] deals with T1, human apelin receptor (Homo sapiens, UniProt P35414).
T1 sequence (P35414 1-380): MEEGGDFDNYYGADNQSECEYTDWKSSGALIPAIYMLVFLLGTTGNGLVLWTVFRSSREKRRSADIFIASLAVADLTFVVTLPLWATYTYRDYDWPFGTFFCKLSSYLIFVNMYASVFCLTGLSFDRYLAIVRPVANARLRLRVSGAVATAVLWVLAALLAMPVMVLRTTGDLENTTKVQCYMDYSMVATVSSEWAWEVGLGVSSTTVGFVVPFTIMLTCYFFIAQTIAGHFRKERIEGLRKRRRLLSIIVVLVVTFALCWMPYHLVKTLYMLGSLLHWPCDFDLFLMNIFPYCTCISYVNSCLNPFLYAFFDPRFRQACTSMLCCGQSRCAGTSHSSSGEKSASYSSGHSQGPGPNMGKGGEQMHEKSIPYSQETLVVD
Description: Competition binding, [125I]apelin-13, homogenate of human left ventricle. The conditions noted are these: read-out: pKi in human LV (converted).
Description: (§1) For structure activity studies competition binding experiments were conductedin triplicate in
(§2) homogenate of pooled human LV from cardiom yopathy patients as previousl y described 1.
(§3) Homogenate of human LV wa s incubat ed for 90 min with 0.1nmol/L [Glp 65,Nle75, T yr 77]
[125 I] apelin-13 in assa y buffer (mmol/ L: Tris 50, MgCl2 5, pH 7.4, 22 °C), in the presence of
(§4) (0.5pmol/ L-10μmol/L) ( n=3 each). Non- specific binding was defined using 1μmol/L
(§5) Equilibrium was broken b y centrifugation (20,000g for 10 min, 4 °C). Pellets
(§6) were washed with Tris-H Cl buffer (50 mmol/ L, pH 7.4, 4 °C), re-centrifuged and bound
(§7) radioactivity in final pellets counted. Data from triplicate experiments wer e anal yz ed using th e
(§8) iterative non-linear curve fitting programs EBDA and LIGAND (KELL package, Biosoft, UK)
(§9) or GraphPad Prism6 and to derive values of affinit y (ex pressed as the –log 10 of the dissociation

Assay [2] deals with T1, human apelin receptor. Description: Receptor internalization assay (DiscoveRx), U2OS cells. The format is cell-based.
Description: (§10) Inhibition of cAMP accumulation, β-arrestin recruitment, and receptor internalization assays were used to determine values of potency (pD2 [–log10 EC50]) and maximum response (EMAX). pD2 values were compared by using 1-way ANOVA with Tukey multiple comparison.
Responses measured in r elative light units were fitted to 4 parameter logistic
concentration response curves in GraphPad Prism 6 (La J olla, CA, USA) and values of
potenc y,pD 2 ( -log10 EC 50 (where EC 50 is the concentration producing half maximal response) ),
and maximum response (EM AX ) w ere calculat ed fo r each compound.Data were subs equentl y
Respon ses measured in relatve li ght units wer e fitted
(§11) to 4 parameter logistic concentration response curves in GraphPad Prism 6 (La J olla, CA,
(§12) USA) and values o f pD 2 ( -log10 EC 50) and maximum response (EM AX ) w er e calcul at ed for each
(§13) used as the refer ence ago nists in each assa y.
Internalisation a ssa ys w ere co nduct ed as previously des cribed1.U2OS cells artificially
ex pressing the human ap elin recepto r wer e seeded in Cell Plating medium in 96 -well plates and
incubated for 48 hours at 37 °C in 5% CO 2.
the cells for 3 hours at 37 °C. This was followed b y incubation with the detection reagents fo r
90 minutes at room temperature and luminescen ce readin g .D at a were an al y s ed as described
for the β -arrestin assa y .
In assay [3] the target is T1, human apelin receptor. As to the kind of experiment: Competition binding of ELA-21 in normal and PAH human LV and RV homogenate. Also on record: host or cells: CHO-K1. The conditions noted are these: pooled homogenate, mean±SEM, n=3. The protocol:
Experiments were conducted in homogenate of human ventricle or Chinese hamster ovary (CHO)-K1 cells expressing the human apelin receptor.
To investigate whether the affinit y of ELA peptides or the density of ELA binding sites is altered in human PAH competition binding experiments were repeated as described above using ELA-21 as the com peting li gand in LV and RV from pooled homogenate from six patients transplanted for PAH and LV and RV from six normal hearts as controls. Datafrom triplicate experiments were anal yzed usin g the iter ative non -linear curve fitting programs EBDA and LIGAND (KELL package, Biosoft, UK) to determine values of affinity (K D) and recepto r densit y (B M AX ). Values were compared for LV and RV between P AH and controls using Student’s 2- tailed t -test. […]

For assay [4], the target named is T1, human apelin receptor. As to the kind of experiment: Inhibition of forskolin-induced cAMP accumulation (DiscoveRx), CHO-K1 cells. The format is cell-based. The arrangement: host or cells: CHO-K1. For orientation: Changes in cAMP serve as a functional read-out for many G protein-coupled receptors.
For assay [5], the target named is T1, human apelin receptor. Description: β-arrestin recruitment assay (DiscoveRx), CHO-K1 cells. The format is cell-based. The arrangement: host or cells: CHO-K1. Background: Arrestin recruitment assays detect the binding of arrestin to an activated receptor.
Description: as §10
β-Arrestin ass a ys wer e conducted as previousl y described1.CHO- K1 cells artificially
ex pressing the human ap elin recepto r wer e seeded in C ell P lating medium into 96-well plates
3μmol/L ) wer e diluted in Cell Plating mediumand added to the cells for 90 minutes at 37 °C..
Detection reagents were then added fo ra 2- hour incubation at room temperature
followed b y chemiluminescence r eadin g. Respon ses measured in relatve li ght units wer e fitted
as §11, §12, §13
Assay [6] has as its target T1, human apelin receptor. Description: Competition binding in CHO-K1 cells expressing the human apelin receptor (Cerep). Also on record: host or cells: CHO-K1.
Description: Comptetition Binding Experiments
as §1, §2, §3, §4, §5, §6, §7, §8, §9
constant (pKi ±sem) ) and recepto r densit y (BM AX ± sem).The pK i and B M AX values for the thr ee
The target of assay [7] is T2, human apelin receptor expressed in CHO-K1 cells (human, UniProt P35414 1-380).
T2 sequence (looked up): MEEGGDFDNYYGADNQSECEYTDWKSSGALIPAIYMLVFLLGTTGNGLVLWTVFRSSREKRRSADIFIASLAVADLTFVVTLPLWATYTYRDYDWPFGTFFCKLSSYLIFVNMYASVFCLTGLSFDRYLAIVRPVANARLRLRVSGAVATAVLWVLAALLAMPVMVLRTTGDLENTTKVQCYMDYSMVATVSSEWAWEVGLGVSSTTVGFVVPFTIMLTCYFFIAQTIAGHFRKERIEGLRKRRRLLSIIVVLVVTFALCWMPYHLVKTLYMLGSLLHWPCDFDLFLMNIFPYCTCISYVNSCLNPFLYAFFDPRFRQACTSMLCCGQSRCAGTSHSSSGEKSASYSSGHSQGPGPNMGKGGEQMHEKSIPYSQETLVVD
Description: cell-based or functional assay.

For assay [8], the target named is T2, human apelin receptor expressed in …. As to the kind of experiment: radioligand binding; competition binding in CHO-K1 cells expressing the human apelin receptor. The settings on record: one partner purified.

For the molecule `CSCC[C@H](NC(=O)[C@@H]1CSSC[C@H](NC(=O)[C@H](CC(N)=O)NC(=O)[C@H](Cc2c[nH]cn2)NC(=O)[C@H](CCCCN)NC(=O)[C@H](CCCNC(=N)N)NC(=O)[C@@H](N)CC(C)C)C(=O)N[C@@H](CC(C)C)C(=O)N[C@@H](CCC(N)=O)C(=O)N[C@@H](CCCNC(=N)N)C(=O)N[C@@H](CCCNC(=N)N)C(=O)N1)C(=O)N1CCC[C@H]1C(=O)N[C@@H](CC(C)C)C(=O)N[C@@H](Cc1c[nH]cn1)C(=O)N[C@@H](CO)C(=O)N[C@@H](CCCNC(=N)N)C(=O)N[C@H](C(=O)N1CCC[C@H]1C(=O)N[C@@H](Cc1ccccc1)C(=O)N1CCC[C@H]1C(=O)O)C(C)C` [ELA-21], the Ki was 3020 pM at human apelin receptor [1]; 347 pM at human apelin receptor [3] (PAH human left ventricle, read-out: pKi, LV PAH (converted)); 501 pM at human apelin receptor [3] (PAH human right ventricle, read-out: pKi, RV PAH (converted)); 490 pM at human apelin receptor [3] (normal human left ventricle, read-out: pKi, LV normal (converted)); 1050 pM on human apelin receptor [3] (normal human right ventricle, read-out: pKi, RV normal (converted)). Besides, the figures for the Emax at human apelin receptor [2] (U2OS), at human apelin receptor [4] (CHO-K1) and on human apelin receptor [5] (CHO-K1) were 96 ± 2%, 101 ± 1% and 102 ± 1%, respectively. The EC50 was 282 pM at human apelin receptor [2] (U2OS cells, 3 hours, 37°C, mean±SEM, n=3-5 assays, 2-6 replicates, read-out: Internalization pD2 (converted)); 372 pM on human apelin receptor [4] (read-out: cAMP pD2 (converted)); 132 pM at human apelin receptor [5] (read-out: β-Arrestin pD2 (converted)).

For the molecule `CSCC[C@@H]1NC(=O)[C@@H](N)CSSC[C@@H](C(=O)N[C@@H](CCCNC(=N)N)C(=O)N[C@H](C(=O)N2CCC[C@H]2C(=O)N[C@@H](Cc2ccccc2)C(=O)N2CCC[C@H]2C(=O)O)C(C)C)NC(=O)[C@H](Cc2c[nH]cn2)NC(=O)[C@H](CC(C)C)NC(=O)[C@@H]2CCCN2C1=O` [cyclo[1–6]ELA-11] (HELM PEPTIDE1{C.M.P.L.H.C.R.V.P.F.P}$PEPTIDE1,PEPTIDE1,1:R3-6:R3$$$V2.0; N-terminus and C-terminus assumed), the “fold drop in affinity versus ELA-32, ELA-21 and ELA-14” value at human apelin receptor [6] turned out to be 100 fold.

B1: cyclo[1–6]ELA-11 (peptide)
chain: CMPLHCRVPFP
modifications: disulfide 1-6
In the case of B1, in assay [7], the “cAMP assay, pD2 (-log10 EC50)” value was 9.42 and the “β-arrestin recruitment assay, pD2 (-log10 EC50)” value came out at 7.67. The pKi in assay [8] amounted to 7.27.

One may read the Emax as the size of the effect at its maximum, as opposed to the concentration needed. A word on the pKi: it is −log10 of the Ki, conventionally taken in molar units. Higher therefore signals a low Ki.
